How the values were obtained:
Assay type in all cases: functional
Echinochloa crus-galli [1] = assay: Herbicidal activity against Echinochloa crus-galli (barnyard grass) assessed as inhibition of plant growth at 10 ug/mL by cup test
Echinochloa crus-galli [2] = assay: Herbicidal activity against Echinochloa crus-galli (barnyard grass) assessed as inhibition of plant growth at 375 g/ha applied as pre-emergence treatment; conditions: Echinochloa crus-galli, pre-emergence
Echinochloa crus-galli [3] = assay: Herbicidal activity against Echinochloa crus-galli (barnyard grass) assessed as inhibition of plant growth at 187.5 g/ha applied as pre-emergence treatment; conditions: Echinochloa crus-galli, pre-emergence
Echinochloa crus-galli [4] = assay: Herbicidal activity against Echinochloa crus-galli (barnyard grass) assessed as inhibition of plant growth at 93.75 g/ha applied as pre-emergence treatment; conditions: for inhibition at 93.75 g/ha: Echinochloa crus-galli, pre-emergence
Digitaria sanguinalis [5] = assay: Herbicidal activity against Digitaria sanguinalis (hairy crabgrass) assessed as inhibition of plant growth at 187.5 g/ha applied as pre-emergence treatment; conditions: Digitaria sanguinalis, pre-emergence
Digitaria sanguinalis [6] = assay: Herbicidal activity against Digitaria sanguinalis (hairy crabgrass) assessed as inhibition of plant growth at 375 g/ha applied as pre-emergence treatment; conditions: for inhibition at 375 g/ha: Digitaria sanguinalis, pre-emergence
Digitaria sanguinalis [7] = assay: Herbicidal activity against Digitaria sanguinalis (hairy crabgrass) assessed as inhibition of plant growth at 93.75 g/ha applied as pre-emergence treatment; conditions: Digitaria sanguinalis, pre-emergence
Digitaria sanguinalis [8] = assay: Herbicidal activity against Digitaria sanguinalis (hairy crabgrass) assessed as inhibition of plant growth at 750 g/ha applied as pre-emergence treatment; conditions: Digitaria sanguinalis, pre-emergence
Echinochloa crus-galli [9] = assay: Herbicidal activity against Echinochloa crus-galli (barnyard grass) assessed as inhibition of plant growth at 750 g/ha applied as pre-emergence treatment; conditions: Echinochloa crus-galli, pre-emergence
[10] = tested as the Zn salt or complex

| SMILES | inhibition at 10 µg/mL (Echinochloa crus-galli [1]) | other results |
| --- | --- | --- |
| COc1cc(OC(C)C)ccc1/C(O)=C1\C(=O)CN(C(C)C)C1=O | 57% | – |
| CCOc1ccc(/C(O)=C2\C(=O)CN(C(C)C)C2=O)c(OC)c1 | 69% | – |
| CC(C)Oc1ccc(/C(O)=C2\C(=O)CN(C(C)C)C2=O)cc1 | 79% | – |
| COc1ccc(/C(O)=C2\C(=O)C(C)N(C(C)C)C2=O)c(OC)c1 (configuration not stated) | 25% | – |
| CCOc1ccc(/C(O)=C2\C(=O)C(C)N(C(C)C)C2=O)c(OC)c1 (configuration not stated) | 32% | – |
| C=CCOc1ccc(/C(O)=C2\C(=O)C(C)N(C(C)C)C2=O)c(OC)c1 (configuration not stated) | 44% | – |
| COc1cc(OC(C)C)ccc1/C(O)=C1\C(=O)C(C)N(C(C)C)C1=O (configuration not stated) | 9% | – |
| COc1ccc(/C(O)=C2\C(=O)C(C)N(C(C)C)C2=O)cc1 (configuration not stated) | 4% | – |
| CCC(C)N1CC(=O)/C(=C(/O)c2ccc(OC)c(OC)c2)C1=O (configuration not stated) | 9% | – |
| CCC(C)N1CC(=O)/C(=C(/O)c2cc(OC)c(OC)cc2OC)C1=O (configuration not stated) | 18% | – |
| CCC(C)N1CC(=O)/C(=C(/O)c2cccc(Oc3ccccc3)c2)C1=O (configuration not stated) | 58% | – |
| CCC(C)N1CC(=O)/C(=C(/O)c2cc(C)cc(C)c2)C1=O (configuration not stated) | 9% | – |
| CCC(C)N1CC(=O)/C(=C(/O)c2ccc(OC)cc2)C1=O (configuration not stated) | 64% | – |
| CCCCOc1ccc(/C(O)=C2\C(=O)CN(C(C)CC)C2=O)cc1 (configuration not stated) | 28% | – |
| CCCCOc1cccc(/C(O)=C2\C(=O)CN(C(C)CC)C2=O)c1 (configuration not stated) | 32% | – |
| CCCc1ccc(/C(O)=C2\C(=O)CN(C(C)CC)C2=O)cc1 (configuration not stated) | 18% | – |
| CCOc1ccc(/C(O)=C2\C(=O)CN(C(C)CC)C2=O)cc1 (configuration not stated) | 78% | inhibition at 375 g/ha (Echinochloa crus-galli [2]): 82%; inhibition at 187.5 g/ha (Echinochloa crus-galli [3]): 28%; inhibition at 93.75 g/ha (Echinochloa crus-galli [4]): 7%; inhibition at 187.5 g/ha (Digitaria sanguinalis [5]): 41%; inhibition at 375 g/ha (Digitaria sanguinalis [6]): 59%; inhibition at 93.75 g/ha (Digitaria sanguinalis [7]): 18%; inhibition at 750 g/ha (Digitaria sanguinalis [8]): 96%; inhibition at 750 g/ha (Echinochloa crus-galli [9]): 93% |
| CCC(C)N1CC(=O)/C(=C(/O)c2ccc(OC(C)C)cc2OC)C1=O (configuration not stated) | 33% | – |

| SMILES | inhibition at 10 µg/mL (Echinochloa crus-galli [1]) | other results |
| --- | --- | --- |
| CCOc1ccc(/C(O)=C2\C(=O)CN(C(C)CC)C2=O)c(OC)c1 (configuration not stated) | 68% | – |
| CCC(C)N1CC(=O)/C(=C(/O)c2ccc(OC(C)C)cc2)C1=O (configuration not stated) | 46% | – |
| CCOc1ccc(/C([O-])=C2\C(=O)CN(C(C)C)C2=O)cc1.CCOc1ccc(/C([O-])=C2\C(=O)CN(C(C)C)C2=O)cc1.[Zn+2] | – | inhibition at 375 g/ha (Echinochloa crus-galli [2]; [10]): 100%; inhibition at 187.5 g/ha (Echinochloa crus-galli [3]; [10]): 96%; inhibition (INH) (Echinochloa crus-galli [4]): 57%; inhibition at 187.5 g/ha (Digitaria sanguinalis [5]; [10]): 64%; inhibition (INH) (Digitaria sanguinalis [6]): 100%; inhibition at 93.75 g/ha (Digitaria sanguinalis [7]; [10]): 8%; inhibition at 750 g/ha (Digitaria sanguinalis [8]; [10]): 100%; inhibition at 750 g/ha (Echinochloa crus-galli [9]; [10]): 100% |
| Cc1ccccc1/C(O)=C1\C(=O)CN(Cc2ccccc2)C1=O | 15% | – |
| Cc1cccc(/C(O)=C2\C(=O)CN(Cc3ccccc3)C2=O)c1 | 12% | – |
| COc1ccccc1/C(O)=C1\C(=O)CN(Cc2ccccc2)C1=O | 14% | – |
| Cc1ccc(/C(O)=C2\C(=O)CN(Cc3ccccc3)C2=O)cc1 | 8% | – |
| O=C1CN(Cc2ccccc2)C(=O)/C1=C(\O)c1ccccc1 | 2% | inhibition at 375 g/ha (Echinochloa crus-galli [2]): 0%; inhibition at 187.5 g/ha (Echinochloa crus-galli [3]): 0%; inhibition at 93.75 g/ha (Echinochloa crus-galli [4]): 0%; inhibition at 750 g/ha (Echinochloa crus-galli [9]): 0% |
| CC(C)(C)c1ccc(/C(O)=C2\C(=O)CN(C(C)(C)C)C2=O)cc1 | 4% | – |
| CC(C)c1ccc(/C(O)=C2\C(=O)CN(C(C)(C)C)C2=O)cc1 | 10% | – |
| COc1ccc(/C(O)=C2\C(=O)CN(C3CC3)C2=O)cc1 | 62% | – |
| CCCCCc1ccc(/C(O)=C2\C(=O)CN(C3CC3)C2=O)cc1 | 5% | – |
| CCOc1ccc(/C(O)=C2\C(=O)CN(C3CC3)C2=O)cc1 | 78% | – |
| O=C1CN(C2CC2)C(=O)/C1=C(\O)c1cccc(Oc2ccccc2)c1 | 58% | – |
| COc1ccc(/C(O)=C2\C(=O)CN(C3CC3)C2=O)c(OC)c1 | 78% | – |
| CC(C)N1CC(=O)/C(=C(/O)c2cccc(Oc3ccccc3)c2)C1=O | 57% | – |
| Cc1cc(C)cc(/C(O)=C2\C(=O)CN(C(C)C)C2=O)c1 | 22% | – |
| CS(=O)(=O)c1ccc(C(=O)C2C(=O)CCCC2=O)c(Cl)c1 [SULCOTRIONE] | – | inhibition at 375 g/ha (Echinochloa crus-galli [2]): 100%; inhibition at 187.5 g/ha (Echinochloa crus-galli [3]): 93%; inhibition at 93.75 g/ha (Echinochloa crus-galli [4]): 70%; inhibition at 187.5 g/ha (Digitaria sanguinalis [5]): 100%; inhibition at 375 g/ha (Digitaria sanguinalis [6]): 100%; inhibition at 93.75 g/ha (Digitaria sanguinalis [7]): 100%; inhibition at 750 g/ha (Digitaria sanguinalis [8]): 100%; inhibition at 750 g/ha (Echinochloa crus-galli [9]): 100% |

— ChEMBL document CHEMBL3045542, “A quantitative structure-activity relationship study of herbicidal analogues of alpha-hydroxy-substituted 3-benzylidenepyrrolidene-2,4-diones” (2006)
